{"source": "patent US10604794B2", "about": "“Method to measure the shortest telomeres” (The Board of Regents of The University of Texas System, priority 2017, dated 2020)", "key": {"NSCLC cell lines": {"tested_on": "NSCLC cell lines", "conditions": "long-term treatment, multiple NSCLC cell lines; cited from earlier work"}, "H2087 cells [1]": {"tested_on": "H2087 cells", "test": "Interphase Q-FISH telomere length in H2087 cells under long-term imetelstat treatment", "format": "cell-based", "conditions": "1 μM imetelstat, 18 weeks treatment compared to 0 weeks and 5 weeks after drug removal", "method": "(§1) FIGS. 2A-2C. Measuring TL in long-term telomerase inhibition with imetelstat (1 μM) treatment and after a removal of drug in H2087 cells. (2A) Isolated DNA from H2087 cells with 1 μM imetelstat treatment for 0, 10 and 18 weeks, and post released from 18 weeks for 1, 2, 3, 4, and 5 weeks was digested with the same REs for TeSLA (BfaI/CviAII/MseI/NdeI) and then separated with 0.7% agarose gel for TRF analysis. (2B) Interphase Q-FISH; cells from H2087 with 0, and 18 weeks 1 μM imetelstat treatment, and 5 weeks after drug removal were used to measure TL by Q-FISH. The results were quantified using TFL-Telo software (n: numbers of nuclei were quantified for each time point as indicated above). (2C) Results of TeSLA using DNA as indicated. Four TeSLA reactions (30 pg of each reaction) were performed for each DNA sample.\n(§2) To further examine the utility of TeSLA in studying telomere dynamics, the inventors evaluated TL dynamics in a telomerase positive non-small cell lung cancer (NSCLC) cell line (H2087). These cells were subjected to long-term telomerase inhibition treatment and then released to observe the dynamic of telomere re-elongation. The results were compared using TeSLA, TRF and telomere Q-FISH. […] In contrast, TeSLA is able to detect TL in both imetelstat treated cells and cells post released from drug in a much more quantitative manner (FIG. 2C). […]"}, "H2087 cells [2]": {"tested_on": "H2087 cells", "test": "TRF analysis of telomere length in H2087 cells under long-term imetelstat treatment", "format": "cell-based", "conditions": "1 μM imetelstat 3 times per week, 10 and 18 weeks treatment", "method": "as §1, §2"}, "telomerase": {"tested_on": "telomerase", "conditions": "binds to the active site of telomerase RNA; cited from earlier work"}}, "data": [{"substance": "imetelstat", "values": [{"measurement": "average TL change", "setting": "NSCLC cell lines", "value": "shorten average TL"}, {"measurement": "telomere signals by Q-FISH", "setting": "H2087 cells [1]", "value": "only a few telomere signals with relatively low intensity were detected"}, {"measurement": "average TL change by TRF analysis", "setting": "H2087 cells [2]", "value": "average TL shortening"}, {"measurement": "telomerase activity", "setting": "telomerase", "value": "robustly inhibits telomerase activity"}]}]}
